In brackets after ≈: the same amount, converted by molar mass.
Columns and labels:
[1] = test system: Pseudomonas putila bacterium; conditions: cited from earlier work
[2] = test system: various microbes of paper-industry waste paste; conditions: inoculated with microbes, within two days
Description: The test was conducted so that each solution to be investigated was taken into two plastic sample flasks, 60 ml into each. One of the two flasks was inoculated with 2 g of paper-industry waste paste containing various microbes, such paste being known as a favorable growth medium for microbes. After mixing, the samples were allowed to stand at room temperature for 2 days.
Culture tests were performed on the samples in a laboratory specialized in microbiologic assays.
The assay of aerobic bacteria was performed using a PCA substrate and incubation for 2 days at 37° C. For the assay of anaerobic bacteria, Brewer's agar and incubation for 2 days in anaerobic vessels at 37° C. were used. In the assay of slime-forming bacteria, PCA-agar+saccharose 50 g/l and incubation for 2 days at 37° C. were used. The slimy colonies were counted. Yeasts and molds were assayed using a Saboraud maltose agar substrate and incubation for 3-4 days at 30° C.

Compound: O=CO [formic acid]
- EC 50 value [1]: 46.7 µg/mL (≈ 1010 µM)

Compound: O=C[O-].[K+] [potassium formate]
- Effect on inoculated microbes [2]: does not form a growth medium for microbes

Compound: CCC(=O)O [propionic acid]
- EC 50 value [1]: 59.6 µg/mL (≈ 805 µM)

Source: US6835323B2, “Aqueous hydraulic medium” (Kemira Oyj, priority 1999, dated 2004)
